Laboratory results taken from patent US20240293402A1, “FORMULATION CONTAINING DIHYDROPYRIDAZINE-3,5-DIONE DERIVATIVE (as amended)” (CHUGAI SEIYAKU KABUSHIKI KAISHA, priority 2021, published 2024).

What was measured:
Solubility in water = assay type: physicochemical; conditions: general statement
NaPi-IIb = molecular target: T1, NaPi-IIb (Homo sapiens, UniProt O95436); conditions: general statement, reported in Patent Literatures 6 and 7; cited from earlier work
T1 sequence (O95436 1-690): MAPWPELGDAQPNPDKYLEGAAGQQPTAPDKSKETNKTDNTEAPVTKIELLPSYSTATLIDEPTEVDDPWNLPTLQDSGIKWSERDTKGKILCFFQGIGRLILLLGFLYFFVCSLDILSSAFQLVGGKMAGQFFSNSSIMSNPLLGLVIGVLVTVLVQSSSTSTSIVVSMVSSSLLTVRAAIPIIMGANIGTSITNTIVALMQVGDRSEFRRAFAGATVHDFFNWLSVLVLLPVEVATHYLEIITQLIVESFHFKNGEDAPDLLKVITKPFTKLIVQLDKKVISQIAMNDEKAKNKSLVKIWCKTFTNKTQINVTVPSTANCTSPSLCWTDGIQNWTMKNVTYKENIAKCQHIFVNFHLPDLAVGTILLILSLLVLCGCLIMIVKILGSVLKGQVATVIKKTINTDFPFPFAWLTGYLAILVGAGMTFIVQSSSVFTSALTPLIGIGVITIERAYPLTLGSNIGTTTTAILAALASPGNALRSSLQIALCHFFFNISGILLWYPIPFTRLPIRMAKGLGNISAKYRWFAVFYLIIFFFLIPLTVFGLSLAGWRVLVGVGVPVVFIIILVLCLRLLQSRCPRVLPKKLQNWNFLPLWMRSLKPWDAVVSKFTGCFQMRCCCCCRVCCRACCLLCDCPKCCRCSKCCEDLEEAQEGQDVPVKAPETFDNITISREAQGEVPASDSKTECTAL

PiT-1 = molecular target: T2, PiT-1 (Homo sapiens, UniProt Q8WUM9); conditions: general statement, reported in Patent Literatures 6 and 7; cited from earlier work
T2 sequence (Q8WUM9 1-679): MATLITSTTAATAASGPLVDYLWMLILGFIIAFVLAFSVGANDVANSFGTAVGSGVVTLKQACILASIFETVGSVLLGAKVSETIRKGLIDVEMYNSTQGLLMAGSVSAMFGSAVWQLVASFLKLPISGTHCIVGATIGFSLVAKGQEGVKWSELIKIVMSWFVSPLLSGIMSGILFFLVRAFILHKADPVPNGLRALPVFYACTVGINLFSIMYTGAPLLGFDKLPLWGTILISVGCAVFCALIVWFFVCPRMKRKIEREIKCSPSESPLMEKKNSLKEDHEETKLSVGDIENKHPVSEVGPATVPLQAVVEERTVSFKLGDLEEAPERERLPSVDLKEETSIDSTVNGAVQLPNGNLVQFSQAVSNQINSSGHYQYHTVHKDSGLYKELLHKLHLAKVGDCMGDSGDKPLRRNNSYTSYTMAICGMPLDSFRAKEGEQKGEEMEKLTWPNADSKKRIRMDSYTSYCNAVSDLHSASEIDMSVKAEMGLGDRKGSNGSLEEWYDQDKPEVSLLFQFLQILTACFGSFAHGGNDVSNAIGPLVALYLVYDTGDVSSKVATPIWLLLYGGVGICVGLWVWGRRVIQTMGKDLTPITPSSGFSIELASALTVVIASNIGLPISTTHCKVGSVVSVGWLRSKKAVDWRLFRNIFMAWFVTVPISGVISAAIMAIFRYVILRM

PiT-2 = molecular target: T3, PiT-2 (Homo sapiens, UniProt Q08357); conditions: general statement, reported in Patent Literatures 6 and 7; cited from earlier work
T3 sequence (Q08357 1-652): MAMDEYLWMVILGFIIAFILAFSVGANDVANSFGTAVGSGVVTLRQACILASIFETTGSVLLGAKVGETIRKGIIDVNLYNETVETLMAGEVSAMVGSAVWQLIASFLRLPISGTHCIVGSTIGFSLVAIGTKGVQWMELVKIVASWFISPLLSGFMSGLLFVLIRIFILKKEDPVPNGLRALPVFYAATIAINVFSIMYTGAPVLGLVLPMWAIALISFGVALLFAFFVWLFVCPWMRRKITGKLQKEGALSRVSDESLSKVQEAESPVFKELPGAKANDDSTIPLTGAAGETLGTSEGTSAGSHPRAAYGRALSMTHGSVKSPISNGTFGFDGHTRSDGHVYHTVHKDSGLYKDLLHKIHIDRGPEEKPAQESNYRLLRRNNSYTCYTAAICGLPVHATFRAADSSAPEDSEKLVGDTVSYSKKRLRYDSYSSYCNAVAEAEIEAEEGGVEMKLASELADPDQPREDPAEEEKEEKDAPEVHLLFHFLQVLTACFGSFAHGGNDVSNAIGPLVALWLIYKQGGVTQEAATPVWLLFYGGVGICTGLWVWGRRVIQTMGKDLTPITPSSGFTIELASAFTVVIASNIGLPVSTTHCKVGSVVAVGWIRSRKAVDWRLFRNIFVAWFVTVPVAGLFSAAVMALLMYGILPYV

## COCCN(C)CCOc1ccc(CN2C(=O)C(C(=O)Nc3ccc(C(F)(F)F)cc3-c3cc(C(F)(F)F)ncn3)=C(O)C3(CCCC3)N2C)c(F)c1F.Cc1ccc(S(=O)(=O)O)cc1 [Compound I, 7-[[2,3-difluoro-4-[2-[2-methoxyethyl(methyl)amino]ethoxy]phenyl]methyl]-10-hydroxy-6-methyl-8-oxo-N-[4-(trifluoromethyl)-2-[6-(trifluoromethyl)pyrimidin-4-yl]phenyl]-6,7-diazaspiro[4,5]deca-9-ene-9-carboxamide]
Solubility in water
  solubility in water: hardly soluble in water
NaPi-IIb
  inhibitory action on NaPi-IIb: strong inhibitory action
PiT-1
  inhibitory action on PiT-1: strong inhibitory action
PiT-2
  inhibitory action on PiT-2: strong inhibitory action
